Reference: US10457710B2, “Antimicrobial peptides, their variants and uses” (priority 2015, dated 2019)
Where a SMILES comes first, the peptide text is derived from it. [ ]: non-standard residue; d: D form.

Tests used:
Assay type in all cases: cell-based
C. glabrata = test: MIC, clinical yeast strains; details: D-form peptide, concentrations tested 0.125 to 128 μg/ml
How it was run: (§1)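 Broth microdilution in Potato dextrose broth, inoculum 5.0×10^5 cfu/ml, peptide 0.125–128 μg/ml, incubated at 37 °C for 20–24 h; MIC taken as lowest concentration without visible growth. A. johnsonii clinical strains were tested the same way in Mueller Hinton broth.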

C. parapsilosis = test: MIC, clinical yeast strains; details: D-form peptide, concentrations tested 0.125 to 128 μg/ml
How it was run: as §1

Candida albicans = test: MIC, clinical yeast strains; details: D-form peptide, concentrations tested 0.125 to 128 μg/ml
How it was run: as §1

C. quillermondiae = test: MIC, clinical yeast strains; details: clinical yeast strain 1; D-form peptide; concentrations tested 0.125 to 128 μg/ml
How it was run: as §1

[1] = tested on: clinical strains of E. coli; test: MIC, microdilution, clinical strains; details: microdilution, Muller Hinton broth-cation adjusted, 0.02% BSA, 0.2% acetic acid
How it was run: (§2)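 Overnight MH agar colonies were suspended in MH broth to 5.0×10^5 cfu/ml, mixed with serial peptide dilutions (0.125–128 μg/ml) and incubated at 37° C for 20 to 24 hours. Yeast MICs were run the same way in potato dextrose broth, and wells were scored visually.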

[2] = tested on: clinical strains of K. pneumoniae; test: MIC, microdilution, clinical strains; details: 0.02% BSA, 0.2% acetic acid
How it was run: as §2

[3] = tested on: clinical strains of E. cloacae; test: MIC, microdilution, clinical strains; details: 0.02% BSA, 0.2% acetic acid
How it was run: as §2

[4] = tested on: clinical strains of S. pneumoniae; test: MIC, microdilution, clinical strains; details: 0.02% BSA, 0.2% acetic acid
How it was run: as §2

[5] = tested on: clinical strains of Serratia marcescens; test: MIC, microdilution, clinical strains; details: 0.02% BSA, 0.2% acetic acid
How it was run: as §2

[6] = tested on: clinical strains of Proteus mirabilis; test: MIC, microdilution, clinical strains; details: 0.02% BSA, 0.2% acetic acid
How it was run: as §2

[7] = tested on: clinical strains of P. aeruginosa; test: MIC, microdilution, clinical strains; details: 0.02% BSA, 0.2% acetic acid
How it was run: as §2

[8] = tested on: clinical strains of S. aureus; test: MIC, microdilution, clinical strains; details: 0.02% BSA, 0.2% acetic acid
How it was run: as §2

[9] = tested on: clinical strains of Acinetobacter baumannii; test: MIC, microdilution, clinical strains; design: unit: μg/ml; details: 0.02% BSA, 0.2% acetic acid
Protocol: Minimum inhibition concetrations (MICs) were determined against Escherichia coli (ATCC 25922), Staphylococcus aureus (ATCC 25923), Klebsiella pneumoniae (ATCC 10031) and Pseudomonas aeruginosa (ATCC 27853). Also clinical strains of E. coli, K. pneumoniae, E. cloacae, P. aeruginosa, Serratia marcescens, Proteus mirabilis, S. pneumoniae, Acinetobacter baumannii, A. johnsonii and S. aureus were used for MICs assays. Additionally, clinical strains of yeast including Candida albicans, C. glabrata, C. parapsilosis and C. quillermondiae were used. The susceptibility of these microorganisms to Chain peptides were determined using micro broth dilution assay. Colonies of the respective microorganism from Muller Hinton (MH) agar plates incubated overnight were suspended in MH broth media and final concentration of microorganism was adjusted to 5.0×10^5 cfu/ml. An aliquot of 10 μl of each Chain peptide, or gentamicin, tetracycline as reference antibiotics were added in differing concentrations along with 90 μl of bacterial suspension to 96 well polypropylene plates and incubated at 37° C. for 20 to 24 hours. Concentrations of Chain peptides and reference antibiotics ranged from 0.125 to 128 μg/ml and the MICs were recorded as the lowest concentration with no visual growth of bacteria. Similarly, antifungal MICs were tested in Potato dextrose broth.
Clinical strains of yeasts including Candida albicans, C. glabrata, C. parapsilosis and C. quillermondiae were also tested with the 12 Chain peptides. The minimum inhibitory concentration (MICs) varied between these peptides and are presented in Tables 4a, 4b, 4c and 5a, 5b, 5c. Peptides Chain 105, 201 and 308 are broad spectrum antimicrobials with MICs between 0.5-32 μg/ml against all the bacteria and yeasts tested, except Serratia marcescens and Proteus mirabilis, against which the MICs were between 64-128 μg/ml. Peptide Chain 306 has narrow spectrum activity against E. coli at 1 μg/ml and for the rest of the bacterial strains at >32 μg/ml (FIG. 10c).

With `CC[C@@H](C)[C@@H](NC(=O)[C@@H](CC(C)C)NC(=O)[C@@H](CCCNC(=N)N)NC(=O)[C@H](N)CCCNC(=N)N)C(=O)N[C@H](Cc1c[nH]c2ccccc12)C(=O)N[C@H](CCCNC(=N)N)C(=O)N[C@H](CCCNC(=N)N)C(=O)N[C@H](Cc1ccccc1)C(=O)N[C@H](CCCCN)C(=O)N[C@H](Cc1c[nH]c2ccccc12)C(=O)N[C@H](CC(C)C)C(=O)N[C@H](CCCNC(=N)N)C(=O)O` [Chain204D] (H-[dR][dR][dL][dI][dW][dR][dR][dF][dK][dW][dL][dR]-OH) the “Minimum inhibitory concentration, C. glabrata strain 1” value (C. glabrata; clinical yeast strain 1) was 4, the “Minimum inhibitory concentration, C. glabrata strain 2” value (C. glabrata; clinical yeast strain 2) was 8 and the “Minimum inhibitory concentration, C. glabrata strain 3” value (C. glabrata; clinical yeast strain 3) was 32. The “Minimum inhibitory concentration, C. glabrata strain 4” value (C. glabrata; clinical yeast strain 4) was 32, the “Minimum inhibitory concentration, C. parapsilosis strain 1” value (C. parapsilosis; clinical yeast strain 1) was 4 and the “Minimum inhibitory concentration, C. parapsilosis strain 2” value (C. parapsilosis; clinical yeast strain 2) was 4. The “Minimum inhibitory concentration, C. parapsilosis strain 3” value (C. parapsilosis; clinical yeast strain 3) was 8, the “Minimum inhibitory concentration, C. parapsilosis strain 4” value (C. parapsilosis; clinical yeast strain 4) was 8 and the “Minimum inhibitory concentration, Candida albicans strain 1” value (Candida albicans; clinical yeast strain 1) was 8. The “Minimum inhibitory concentration, Candida albicans strain 2” value (Candida albicans; clinical yeast strain 2) was 8, the “Minimum inhibitory concentration, Candida albicans strain 3” value (Candida albicans; clinical yeast strain 3) was 8 and the “Minimum inhibitory concentration, Candida albicans strain 4” value (Candida albicans; clinical yeast strain 4) was 8. For the same compound, the “Minimum inhibitory concentration, Candida albicans strain 5” value (Candida albicans; clinical yeast strain 5) was 8, the “Minimum inhibitory concentration, C. quillermondiae strain 1” value (C. quillermondiae) was 4 and the Minimum inhibitory concentration ([1]; Escherichia coli strain 1) was 8. For the same compound, the Minimum inhibitory concentration ([1]; Escherichia coli strain 2) was 1, the Minimum inhibitory concentration ([1]; Escherichia coli strain 3) was 1 and the Minimum inhibitory concentration ([1]; Escherichia coli strain 4) was 1. The Minimum inhibitory concentration ([1]; Escherichia coli strain 5) was 1, the Minimum inhibitory concentration ([2]; Klebsiella pneumoniae strain 1, Muller Hinton broth-cation adjusted) was 8 and the Minimum inhibitory concentration ([2]; Klebsiella pneumoniae strain 2, Muller Hinton broth-cation adjusted) was 4. For the same compound, the Minimum inhibitory concentration ([2]; Klebsiella pneumoniae strain 3, Muller Hinton broth-cation adjusted) was 16, the Minimum inhibitory concentration ([2]; Klebsiella pneumoniae strain 4, Muller Hinton broth-cation adjusted) was 4 and the Minimum inhibitory concentration ([2]; Klebsiella pneumoniae strain 5, Muller Hinton broth-cation adjusted) was 2. It also gave a Minimum inhibitory concentration ([3]; Enterobacter cloacae strain 1, Muller Hinton broth-cation adjusted) of 4, a Minimum inhibitory concentration ([3]; Enterobacter cloacae strain 2, Muller Hinton broth-cation adjusted) of 8 and a Minimum inhibitory concentration ([3]; Enterobacter cloacae strain 3, Muller Hinton broth-cation adjusted) of 4. For the same compound, the Minimum inhibitory concentration ([3]; Enterobacter cloacae strain 4, Muller Hinton broth-cation adjusted) was 8, the Minimum inhibitory concentration ([3]; Enterobacter cloacae strain 5, Muller Hinton broth-cation adjusted) was 2 and the Minimum inhibitory concentration ([4]; Streptococcus pneumoniae strain 1, Muller Hinton broth-cation adjusted) was 4. It also gave a Minimum inhibitory concentration ([4]; Streptococcus pneumoniae strain 2, Muller Hinton broth-cation adjusted) of 4, a Minimum inhibitory concentration ([4]; Streptococcus pneumoniae strain 3, Muller Hinton broth-cation adjusted) of 4 and a Minimum inhibitory concentration ([4]; Streptococcus pneumoniae strain 4, Muller Hinton broth-cation adjusted) of 4. For the same compound, the Minimum inhibitory concentration ([4]; Streptococcus pneumoniae strain 5, Muller Hinton broth-cation adjusted) was 4, the Minimum inhibitory concentration ([5]; Serratia marcescens strain 1, Muller Hinton broth-cation adjusted) was >128 and the Minimum inhibitory concentration ([5]; Serratia marcescens strain 2, Muller Hinton broth-cation adjusted) was >128. The Minimum inhibitory concentration ([5]; Serratia marcescens strain 3, Muller Hinton broth-cation adjusted) was 128, the Minimum inhibitory concentration ([5]; Serratia marcescens strain 4, Muller Hinton broth-cation adjusted) was >128 and the Minimum inhibitory concentration ([5]; Serratia marcescens strain 5, Muller Hinton broth-cation adjusted) was >128. The Minimum inhibitory concentration ([6]; Proteus mirabilis strain 1, Muller Hinton broth-cation adjusted) was >128, the Minimum inhibitory concentration ([6]; Proteus mirabilis strain 2, Muller Hinton broth-cation adjusted) was 32 and the Minimum inhibitory concentration ([6]; Proteus mirabilis strain 3, Muller Hinton broth-cation adjusted) was 64. The Minimum inhibitory concentration ([6]; Proteus mirabilis strain 4, Muller Hinton broth-cation adjusted) was >128, the Minimum inhibitory concentration ([6]; Proteus mirabilis strain 5, Muller Hinton broth-cation adjusted) was >128 and the Minimum inhibitory concentration ([7]; Pseudomonas aeruginosa strain 1, Muller Hinton broth-cation adjusted) was 4. For the same compound, the Minimum inhibitory concentration ([7]; Pseudomonas aeruginosa strain 2, Muller Hinton broth-cation adjusted) was 16, the Minimum inhibitory concentration ([7]; Pseudomonas aeruginosa strain 3, Muller Hinton broth-cation adjusted) was 8 and the Minimum inhibitory concentration ([7]; Pseudomonas aeruginosa strain 4, Muller Hinton broth-cation adjusted) was 8. It also gave a Minimum inhibitory concentration ([7]; Pseudomonas aeruginosa strain 5, Muller Hinton broth-cation adjusted) of 4, a Minimum inhibitory concentration ([8]; Staphylococcus aureus strain 1, Muller Hinton broth-cation adjusted) of 1 and a Minimum inhibitory concentration ([8]; Staphylococcus aureus strain 2, Muller Hinton broth-cation adjusted) of 2. The Minimum inhibitory concentration ([8]; Staphylococcus aureus strain 3, Muller Hinton broth-cation adjusted) was 2, the Minimum inhibitory concentration ([8]; Staphylococcus aureus strain 4, Muller Hinton broth-cation adjusted) was 1 and the Minimum inhibitory concentration ([8]; Staphylococcus aureus strain 5, Muller Hinton broth-cation adjusted) was 1. For the same compound, the Minimum inhibitory concentration ([9]; Acinetobacter baumannii strain 1, Muller Hinton broth-cation adjusted) was 4, the Minimum inhibitory concentration ([9]; Acinetobacter baumannii strain 2, Muller Hinton broth-cation adjusted) was 4 and the Minimum inhibitory concentration ([9]; Acinetobacter baumannii strain 3, Muller Hinton broth-cation adjusted) was 4. The Minimum inhibitory concentration ([9]; Acinetobacter baumannii strain 4, Muller Hinton broth-cation adjusted) was 4 and the Minimum inhibitory concentration ([9]; Acinetobacter baumannii strain 5, Muller Hinton broth-cation adjusted) was 4.
